Converted amounts (≈) assume the structure as drawn. Some results are limits rather than exact numbers.

The test system of experiment [1] is Calf thymus DNA. Kind of experiment: Binding affinity to calf thymus DNA assessed as binding constant incubated for 30 mins by fluorescence based EtBr-displacement assay. Format: nucleic-acid assay. As to conditions: Bos taurus.
Experiment [2] can be described thus: Antioxidant activity assessed as DPPH radical scavenging activity incubated for 30 mins by UV-Vis spectrophotometer assay. Format: functional. On the technique in general: The DPPH test is a chemical assay of radical scavenging.
Experiment [3] is described as follows: Antioxidant activity assessed as hydrogen peroxide free radical scavenging activity incubated for 10 mins. Format: functional.
Experiment [4] has as its system HeLa. Kind of experiment: Cytotoxicity against human HeLa cells assessed as inhibition of cell growth by MTT assay. Format: functional, cell-based.
Experiment [5] deals with MCF7. In words: Cytotoxicity against human MCF7 cells assessed as inhibition of cell growth by MTT assay. Format: functional, cell-based. In general terms: Tetrazolium dyes change colour on reduction, which living cells bring about.
The subject of experiment [6] is SGC-7901. In words: Cytotoxicity against human SGC-7901 cells assessed as inhibition of cell growth by MTT assay. Format: functional, cell-based.
The test system of experiment [7] is A549. Kind of experiment: Cytotoxicity against human A549 cells assessed as inhibition of cell growth by MTT assay. Format: functional, cell-based.
Experiment [8] has as its system Calf thymus DNA. Kind of experiment: Binding affinity to calf thymus DNA assessed as DNA intercalation by measuring binding constant by fluorescence spectroscopic assay. Format: nucleic-acid assay. As to conditions: Bos taurus.
Experiment [9] has as its system MCF7. Kind of experiment: Antiproliferative activity against human MCF7 cells assessed as inhibition of cell proliferation. Format: functional, cell-based.
The test system of experiment [10] is HT-29. Kind of experiment: Antiproliferative activity against human HT-29 cells assessed as inhibition of cell proliferation. Format: functional, cell-based.
Experiment [11] concerns Calf thymus DNA. Kind of experiment: Binding affinity to calf thymus DNA assessed as DNA intercalation by measuring change in melting temperature by thermal denaturation assay based UV-Vis spectrophotometric analysis. Format: nucleic-acid assay. As to conditions: Bos taurus.
Experiment [12] concerns HL-60. Kind of experiment: Cytotoxicity against human HL-60 cells assessed as inhibition of cell growth incubated for 96 hrs by MTT assay. Particulars: HL-60, 96 h. Format: functional, cell-based.
For experiment [13], the system named is U-937. Kind of experiment: Cytotoxicity against human U-937 cells assessed as inhibition of cell growth incubated for 96 hrs by MTT assay. Format: functional, cell-based. Particulars: U-937, 96 h.
Experiment [14] deals with Calf thymus DNA. Kind of experiment: Binding affinity to calf thymus DNA assessed as DNA intercalation by measuring change in melting temperature by thermal denaturation assay. Format: nucleic-acid assay. As to conditions: Bos taurus.
Experiment [15] deals with HL-60. In words: Antiproliferative activity against human HL-60 cells assessed as inhibition of cell growth. Format: functional, cell-based.
Experiment [16] concerns A549. Kind of experiment: Antiproliferative activity against human A549 cells assessed as inhibition of cell growth. Format: functional, cell-based.
Experiment [17] concerns HeLa. In words: Antiproliferative activity against human HeLa cells assessed as inhibition of cell growth. Format: functional, cell-based.
For experiment [18], the system named is MCF7. In words: Cytotoxicity against human MCF7 cells assessed as inhibition of cell growth incubated for 24 hrs by CCK-8 assay. Format: functional, cell-based. Particulars: MCF7, 24 h.
The subject of experiment [19] is A2780. In words: Cytotoxicity against human A2780 cells assessed as inhibition of cell growth incubated for 72 hrs by SRB assay. Format: functional, cell-based. As to conditions: A2780, 72 h. (In SRB staining, fixed cells bind dye roughly in proportion to their protein.)
Experiment [20] concerns Staphylococcus aureus. Kind of experiment: Antibacterial activity against Staphylococcus aureus MTCC 96 assessed as inhibition of bacterial growth by agar well diffusion assay. Format: functional.
For experiment [21], the system named is Staphylococcus epidermidis. Kind of experiment: Antibacterial activity against Staphylococcus epidermidis MTCC 435 assessed as inhibition of bacterial growth by agar well diffusion assay. Format: functional.
Experiment [22] has as its system Escherichia coli. Kind of experiment: Antibacterial activity against Escherichia coli MTCC 443 assessed as inhibition of bacterial growth by agar well diffusion assay. Format: functional.
Experiment [23] has as its system Pseudomonas aeruginosa. In words: Antibacterial activity against Pseudomonas aeruginosa MTCC 741 assessed as inhibition of bacterial growth by agar well diffusion assay. Format: functional.
Experiment [24] deals with HeLa. Kind of experiment: Cytotoxicity against human HeLa cells assessed as inhibition of cell growth incubated for 48 hrs by MTT spectrophotometric assay. Format: functional, cell-based.
Experiment [25] deals with SGC-7901. In words: Cytotoxicity against human SGC-7901 cells assessed as inhibition of cell growth incubated for 48 hrs by MTT spectrophotometric assay. Format: functional, cell-based. Particulars: SGC-7901, 48 h.
The test system of experiment [26] is A549. In words: Cytotoxicity against human A549 cells assessed as inhibition of cell growth incubated for 48 hrs by MTT spectrophotometric assay. Format: functional, cell-based. Particulars: A549, 48 h.
The test system of experiment [27] is Calf thymus DNA. Kind of experiment: Binding affinity to calf thymus DNA assessed as binding constant by UV-Vis spectroscopic analysis. Format: nucleic-acid assay. As to conditions: Bos taurus.
The test system of experiment [28] is HCT-116. In words: Cytotoxicity against human HCT-116 cells assessed as inhibition of cell growth incubated for 24 hrs by XTT assay. Format: functional, cell-based. Particulars: HCT-116, 24 h.
For experiment [29], the system named is PANC-1. In words: Cytotoxicity against human PANC-1 cells assessed as inhibition of cell growth incubated for 24 hrs by XTT assay. Format: functional, cell-based. As to conditions: PANC-1, 24 h.
The subject of experiment [30] is SK-MEL-28. Kind of experiment: Growth inhibition against human SK-MEL-28 cells at 10 uM incubated for 48 hrs by sulforhodamine B reagent assay. Format: functional. As to conditions: read-out: GI.
The subject of experiment [31] is SMMC-7721. Kind of experiment: Antiproliferative activity against human SMMC-7721 cells assessed as inhibition of cell proliferation incubated for 48 hrs by MTT assay. As to conditions: SMMC-7721, 48 h. Format: functional, cell-based.
The test system of experiment [32] is MCF7. Kind of experiment: Antiproliferative activity against human MCF7 cells assessed as inhibition of cell proliferation incubated for 48 hrs by MTT assay. Particulars: MCF7, 48 h. Format: functional, cell-based.
Experiment [33] concerns HeLa. Kind of experiment: Antiproliferative activity against human HeLa cells assessed as inhibition of cell proliferation incubated for 48 hrs by MTT assay. Format: functional, cell-based.
The test system of experiment [34] is Jurkat. In words: Antiproliferative activity against human Jurkat cells assessed as inhibition of cell proliferation incubated for 72 hrs by MTT assay. Format: functional, cell-based.
Experiment [35] concerns A549. Kind of experiment: Antiproliferative activity against human A549 cells assessed as inhibition of cell proliferation incubated for 72 hrs by MTT assay. Format: functional, cell-based. As to conditions: A549, 72 h.
The subject of experiment [36] is MCF7. Kind of experiment: Antiproliferative activity against human MCF7 cells assessed as inhibition of cell proliferation incubated for 72 hrs by MTT assay. Format: functional, cell-based. Particulars: MCF7, 72 h.

What is called IC50 is the concentration at which inhibition is half-maximal. For `COc1cccc(/C=N/N2C(=O)c3cccc4cccc(c34)C2=O)c1O`, the Kb in [1] is 2.25 10^4/M. The concentration for half-maximal inhibition (IC50) in experiment [2] came out at 1430 µg/mL (≈ 4130 µM); in experiment [3], 1170 µg/mL (≈ 3380 µM).
For `CN(C)CCN1C(=O)c2cccc3c(N4CC[C@@H](O)C4)ccc(c23)C1=O`, the IC50 in experiment [4], in experiment [5], in [6] and in experiment [7] was 870 nM throughout. Further, the Kb in [8] is 1.8 10^4/M.
In general, ΔTm refers to the change in melting temperature against a reference sample. `CCSc1ccc2c3c(cccc13)C(=O)N(CCCn1cc[n+](C)c1)C2=O`: the IC50 in experiment [9] and in experiment [10] was 4600 nM each time. For the same molecule, the ΔTm in experiment [11] worked out at 3 °C.
Regarding `O=C1c2cccc3c([N+](=O)[O-])ccc(c23)C(=O)N1CCCl`, the 50% inhibitory concentration (IC50) in experiment [12] and in [13] was 300 nM each time.
Take `CN(C)CCN1C(=O)c2cccc3c(N4CC[C@H](O)C4)ccc(c23)C1=O`: the IC50 in [4], in [5], in experiment [6] and in experiment [7] was 870 nM throughout. Also, the Kb in experiment [8] is 1.8 10^4/M.
As to `CN(C)CCN1C(=O)c2cccc3c(NCCNCCN)ccc(c23)C1=O`, in experiment [14], the ΔTm was 11.8 °C. The values for the IC50 in experiment [15], in experiment [16] and in experiment [17] were 13100 nM, 3160 nM and 13100 nM, respectively.
Regarding `CN(C)CCCN1C(=O)c2cccc3c(NCCN)ccc(c23)C1=O`, in experiment [18], the IC50 was 56600 nM.
On to `CN(C)CCN1C(=O)c2cccc3c(N4CCC[C@@H]4CO)ccc(c23)C1=O`, for which the 50% inhibitory concentration (IC50) in [4], in [5], in experiment [6] and in experiment [7] was 870 nM each time. In addition, the Kb in experiment [8] is 1.8 10^4/M.
As usually defined, the MIC is the lowest concentration found to suppress growth. As to `O=C1c2ccc3c4c(ccc(c24)C(=O)N1c1nc(-c2cc4ccccc4oc2=O)cs1)C(=O)N(c1nc(-c2cc4ccccc4oc2=O)cs1)C3=O`, the thermal shift (ΔTm) in experiment [14] was 0.1 °C. For the same molecule, the IC50 in [19] was less than 100 nM. Moreover, the minimum inhibitory concentration (MIC) in [20], in experiment [21], in experiment [22] and in experiment [23] was 18.8 µg/mL (≈ 26 µM) throughout.
`CN(C)CCN1C(=O)c2cccc3c(N4CCN(CCO)CC4)ccc(c23)C1=O`: the half-maximal inhibitory concentration (IC50) in experiment [24], in experiment [25] and in experiment [26] was less than 7000 nM each time. The Kb in experiment [27] is 0.47 10^5/M.
`O=C1c2cccc3c([N+](=O)[O-])ccc(c23)C(=O)N1CCCCl`: the IC50 in [12] and in experiment [13] was 300 nM in each case.
`CN(C)CCN1C(=O)c2cccc3c(N(CCCl)CCCl)ccc(c23)C1=O`: the IC50 in experiment [28] and in experiment [29] was 1900 nM each time.
For `COS(=O)(=O)CCCCSc1ccc2c3c(cccc13)C(=O)N(CCN(C)C)C2=O`, the half-maximal inhibitory concentration (IC50) in experiment [28] and in experiment [29] was 11700 nM in each case.
As for `CN1CCN(c2ccc3nc(-c4ccc(OCCCCN5CCN(CCCCN6C(=O)c7cccc8cccc(c78)C6=O)CC5)cc4)[nH]c3c2)CC1`, in experiment [30], the inhibition of growth at 10 µM was determined as 50%.
With `CN(C)CCN1C(=O)c2cccc3cc(-n4ccnn4)cc(c23)C1=O`, the Kb in experiment [27] was 5.1 10^5/M. Moreover, the 50% inhibitory concentration (IC50) in experiment [31], in [32] and in [33] was 300 nM in each case.
As for `O=C1c2cccc3cccc(c23)C(=O)N1CC/N=C/c1ccccn1`, the IC50 in experiment [34] amounted to 5580 nM; in experiment [35] it was 5670 nM; in experiment [36], 5670 nM.

Source of the values: ChEMBL document CHEMBL5244223, “l,8-Naphthalimide based DNA intercalators and anticancer agents. A systematic review from 2007 to 2017” (Eur J Med Chem, 2018).
